Data: US5362740A, “Dihydrobenzofuran carboxamides and process for their preparation” (Farmitalia Carlo Erba S.r.l., priority 1990, dated 1994)

Columns and labels:
[1] = target: T1, 5HT3 receptor (Rattus norvegicus, UniProt P35563); assay: Inhibition of the Bezold-Jarisch chemoreflex evoked by 5-HT in the anesthetized rat (in vivo 5HT3 antagonist activity); design: evoked by 5-HT in the anesthetised rat; from tissue; host or cells: whole anesthetized rat (in vivo); conditions: 5-HT 20 μg/kg I.V.; for % inhibition: mean ± S.E.M. from 6 animals, *p < 0.01 vs controls (Dunnett's test); for ED50: iv, I.V., anesthetized rat, read-out: ED50 (limits)
T1 sequence (P35563 24-483): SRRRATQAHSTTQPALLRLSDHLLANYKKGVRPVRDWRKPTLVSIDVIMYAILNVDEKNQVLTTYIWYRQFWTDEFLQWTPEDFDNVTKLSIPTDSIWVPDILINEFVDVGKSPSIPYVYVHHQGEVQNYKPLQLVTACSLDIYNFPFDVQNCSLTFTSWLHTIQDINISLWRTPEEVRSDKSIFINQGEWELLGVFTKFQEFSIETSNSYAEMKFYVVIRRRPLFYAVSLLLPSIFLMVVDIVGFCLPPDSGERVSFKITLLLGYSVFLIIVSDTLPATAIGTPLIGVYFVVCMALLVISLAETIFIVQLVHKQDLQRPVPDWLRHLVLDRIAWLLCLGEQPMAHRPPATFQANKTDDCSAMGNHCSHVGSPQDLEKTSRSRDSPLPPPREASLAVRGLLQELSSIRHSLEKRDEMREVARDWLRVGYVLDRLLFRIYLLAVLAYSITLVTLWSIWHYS
Experimental: Ther. 248, 197-201 (1989).
Inhibition of the Bezold-Jarisch reflex elicited by 5-HT (20 μg/
Values are mean ± S.E.M. from 6 animals

[2] = target: 5-HT3 receptor; assay: Inhibition of the binding of ^3 H-GR65630; 5-HT3 binding affinity for rat entorhinal cortex; conditions: [^3 H] GR 65630 labeled 5HT3 sites; rat entorhinal cortex; two site non-linear fitting, low
[3] = target: T1, 5HT3 receptor; assay: as above; design: labeled in the entorhinal cortex of the rat brain; from tissue; host or cells: rat brain entorhinal cortex; conditions: for fitting model of interaction / displacement of ^3 H-GR 65630: rat entorhinal cortex

Compound | % inhibition ([1]; 0.1 μg/kg I.V.) [%] | % inhibition ([1]; 0.3 μg/kg I.V.) [%] | % inhibition ([1]; 1 μg/kg I.V.) [%] | ED50 [1] [µg/kg] | Ki [2] [nM] | Ki [3] [nM] | fitting model of interaction / displacement of ^3 H-GR 65630 [3] | % inhibition ([1]; 3 μg/kg I.V.) [%] | % inhibition ([1]; 10 μg/kg I.V.) [%]
CN1C2CCC1CC(NC(=O)c1cc(Cl)c(N)c3c1OCC3)C2 (stereo not drawn) [FCE 27271, 4-amino-5-chloro-N-(8-methyl-8-azabicyclo[3.2.1]oct-3-yl)-2,3-dihydrobenzo[b]furan-7-carboxamide] | 23.83 ± 5.50 | 55.69 ± 4.05 | 82.54 ± 2.33 | 0.81 | 96.2 | 0.833 | two site non-linear fitting model | – | –
CN1C2CCCC1CC(NC(=O)c1cc(Cl)c(N)c3c1OCC3)C2 (stereo not drawn) [FCE 27270, 4-amino-5-chloro-N-(9-methyl-9-azabicyclo[3.3.1]non-3-yl)-2,3-dihydrobenzo[b]furan-7-carboxamide] | 37.25 ± 2.77 | 54.09 ± 3.39 | 89.11 ± 3.39 | 0.2 | 39 | 0.092 | two site non-linear fitting model | – | –
CN1C2CCC1CC(OC(=O)c1cc(Cl)cc(Cl)c1)C2 (stereo not drawn) [MDL 72222, reference compound] | – | – | – | – | – | – | one site non-linear fitting | – | –
CCN(CC)CCNC(=O)c1cc(Cl)c(N)cc1OC [Metoclopramide, reference compound] | – | – | – | – | – | – | one site non-linear fitting | – | –
Cc1nccn1CC1CCc2c(c3ccccc3n2C)C1=O (racemic) [Ondansetron, (±)-1,2,3,4-tetrahydro-9-methyl-3-(2-methylimidazol-1-yl-methyl)-carbazol-4-one, reference compound] | – | – | 32.86 ± 8.58 | 2.25 | – | – | two site non-linear fitting model | 58.42 ± 3.89 | 81.21 ± 1.82
